Experimental data published in ChEMBL document CHEMBL1212883, “Limonoids from the leaves of Cipadessa baccifera” (J Nat Prod, 2010).

What was measured:
Assay type in all cases: functional, cell-based
SMMC-7721 = test: Cytotoxicity against human SMMC7721 cells after 72 hrs by MTT assay; conditions: SMMC-7721, 72 h
SW480 = test: Cytotoxicity against human SW480 cells after 72 hrs by MTT assay; conditions: SW480, 72 h
HL-60 = test: Cytotoxicity against human HL60 cells after 72 hrs by MTT assay; conditions: HL-60, 72 h
A549 = test: Cytotoxicity against human A549 cells after 72 hrs by MTT assay; conditions: A549, 72 h
MCF7 = test: Cytotoxicity against human MCF7 cells after 72 hrs by MTT assay; conditions: MCF7, 72 h

| SMILES | IC50 (SMMC-7721) | IC50 (SW480) | IC50 (HL-60) | IC50 (A549) | IC50 (MCF7) |
| --- | --- | --- | --- | --- | --- |
| CCC(C)C(=O)O[C@@H]1[C@@H]2OC[C@]3(C)[C@H](OC(C)=O)C[C@H](OC(C)=O)[C@@](C)([C@@H]23)[C@H]2CC[C@]3(C)C(=CC(=O)[C@H]3c3ccoc3)[C@]12C (stereo not given in full) [CIPADESIN L] | > 40 µM | > 40 µM | > 40 µM | > 40 µM | > 40 µM |
| C=C1[C@]2(O)CC[C@@]3(C)[C@H](c4ccoc4)OC(=O)C[C@]13O[C@H]1C[C@@H](OC(C)=O)C(C)(C)[C@H](CC(=O)OC)[C@]12C [CIPADESIN Q] | > 40 µM | > 40 µM | > 40 µM | > 40 µM | > 40 µM |
| CCC(C)C(=O)O[C@@H]1[C@@H]2OC[C@]3(C)[C@H](OC(C)=O)C[C@H](OC(C)=O)[C@](C)([C@H]4CC[C@@]5(C)[C@H](c6ccoc6)OC(=O)[C@@H]6O[C@@]65[C@]14C)[C@@H]23 (stereo not given in full) [CIPADESIN K] | > 40 µM | 36.6 µM | > 40 µM | > 40 µM | > 40 µM |
| C=C1[C@]2(O)C(=O)C[C@@]3(C)[C@H](c4ccoc4)OC(=O)C[C@]13O[C@H]1[C@@H](OC(C)=O)[C@@H](OC(C)=O)C(C)(C)[C@H](CC(=O)OC)[C@]12C [CIPADESIN P] | > 40 µM | > 40 µM | > 40 µM | > 40 µM | > 40 µM |
| CCC(C)C(=O)O[C@@H]1[C@H]2C(=O)[C@](C)(C3=CC[C@]4(C)[C@@H](CC(=O)O[C@H]4c4ccoc4)[C@]34O[C@H]24)[C@@H](CC(=O)OC)C1(C)C (stereo not given in full) [CIPADESIN O] | > 40 µM | > 40 µM | > 40 µM | > 40 µM | > 40 µM |
| CC(=O)O[C@H]1C[C@@H](OC(C)=O)[C@@]2(C)CO[C@H]3[C@@H](O)[C@]4(C)[C@H](CC[C@@]5(C)[C@H](c6ccoc6)OC(=O)[C@@H]6O[C@]645)[C@]1(C)[C@@H]32 [CIPADESIN J] | 20.4 µM | 20.2 µM | > 40 µM | > 40 µM | > 40 µM |
| CCC(C)C(=O)O[C@@H]1[C@@H]2OC[C@]3(C)[C@H](OC(C)=O)C[C@H](OC(C)=O)[C@](C)([C@H]4CC[C@@]5(C)[C@H](c6ccoc6)C(=O)[C@@H]6O[C@@]65[C@]14C)[C@@H]23 (stereo not given in full) [CIPADESIN M] | > 40 µM | > 40 µM | > 40 µM | > 40 µM | > 40 µM |
| CCC(C)C(=O)O[C@H]1C(C)(C)[C@H](CC(=O)OC)[C@]2(C)C(=O)[C@@]1(O)CC1=C3CC(=O)O[C@@H](c4ccoc4)[C@]3(C)CC[C@@H]12 (stereo not given in full) [CIPADESIN N] | > 40 µM | > 40 µM | > 40 µM | > 40 µM | > 40 µM |
